# Assay results: publication PMC11273618, “Multianalytical Approach to Understand Polyphenol-Mal d 1 Interactions to Predict Their Impact on the Allergenic Potential of Apples” (Journal of Agricultural and Food Chemistry, 2024)
# What was measured:
# [1] = target: T1, r-Mal d 1.01 (recombinant Mal d 1.0108) (Malus domestica, UniProt Q9SYW3); assay: isothermal titration calorimetry, independent model; details: 0.1 M sodium phosphate pH 7, 25 °C; 0.2 mM protein, 4 mM ligand injected; stoichiometry fixed at n = 1; weak nonspecific surface binding; unreliable
# T1 construct: gene MALD1; 15N-labelled in M9 medium for HSQC NMR; one cysteine (Cys107)
# T1 sequence (Q9SYW3 1-159): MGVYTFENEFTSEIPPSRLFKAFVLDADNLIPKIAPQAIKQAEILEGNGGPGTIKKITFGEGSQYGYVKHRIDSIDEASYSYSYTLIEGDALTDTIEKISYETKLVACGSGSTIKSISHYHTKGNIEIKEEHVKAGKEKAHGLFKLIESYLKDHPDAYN
# [2] = target: T1, r-Mal d 1.01 (recombinant Mal d 1.0108); assay: untargeted bottom-up LC-MS of tryptic peptides; format: binding; details: covalent; Michael addition at Cys107 (peptide LVACGSGSTIK) via o-quinone formed by autoxidation; excess ligand in water, 20 min, room temperature
# [3] = target: T1, r-Mal d 1.01 (recombinant Mal d 1.0108); assay: 1H-15N-HSQC NMR chemical shift perturbation; format: binding; details: 50 mM phosphate pH 7, 10% D2O, 25 °C; 100 μM 15N-protein, 0.1-2 mM ligand; no specific site, scattered over surface
structure (smiles),measurement,setting,value
"Oc1cc(O)c2c(c1)O[C@H](c1ccc(O)c(O)c1)[C@H](O)[C@H]2c1c(O)cc(O)c2c1O[C@H](c1ccc(O)c(O)c1)[C@@H](O)C2 [PC B1, procyanidin B1]",KD,[1],1200 ± 200 µM
"Oc1cc(O)c2c(c1)O[C@H](c1ccc(O)c(O)c1)[C@H](O)[C@H]2c1c(O)cc(O)c2c1O[C@H](c1ccc(O)c(O)c1)[C@H](O)C2 [PC B2, procyanidin B2]",KD,[1],600 ± 0 µM
"Oc1cc(O)c2c(c1)O[C@H](c1ccc(O)c(O)c1)[C@@H](O)C2 [CAT, (+)-catechin]",KD,[1],500 ± 0 µM
"Oc1cc(O)c2c(c1)O[C@H](c1ccc(O)c(O)c1)[C@H](O)C2 [EC, (−)-epicatechin]",KD,[1],1400 µM
same,% modification of Cys107 peptide,[2],~ 30%
"O=C(/C=C/c1ccc(O)c(O)c1)O[C@@H]1C[C@](O)(C(=O)O)C[C@@H](O)[C@H]1O [CA, chlorogenic acid]",1H-15N-HSQC NMR chemical shift perturbation,[3],CA showed by far the strongest impact on the protein surface
